Assays:
S. cerevisiae = conditions: typical low concentration; background statement; cited from earlier work
FY23Δpet191 = system: FY23Δpet191
Description: (§1) Strain-specific ethanol tolerances were determined in batch cultures in specially adapted 100ml Erienmeyer flasks (called Klett Flasks) in combination with the Klett Summerson colorimeter and a green filter (Klett Summerson, USA). Cultures were grown to early exponential phase overnight and then split into 18ml aliquots to which 2ml of either sterile distilled water or ethanol solution were added to the aliquots giving final concentrations of 0, 2,3,4,6 and 10% (w/v) ethanol. Each concentration was carried out in triplicate and hourly measurements were made of cell density. A 1ml sample was extracted from the flask, diluted and plated onto YPD for a viable cell count. The remainder of the sample was centrifuged (15,000 rpm, 4°C, 5 min) and the supernatant frozen for subsequent analysis of ethanol concentration by GC.
(§2) All four members of the isogenic series (FY23WT, FY23Δpet191, FY23Δcox5a and FY23ρ^0) were grown in batch culture at 30°C and ethanol, at various concentrations, was introduced at the beginning of the exponential phase. Cell growth was followed for eight hours measuring optical densities with a Klett meter.
(§3) Graphs were plotted of loge Klett units against elapsed time and linear regression analysis was performed to calculate culture specific growth rates, µ. The effect of ethanol on the growth rate of the 4 members of the series was analysed by comparing relative growth rates at each ethanol concentration, and calculating these as a percentage of the growth rate in the absence of ethanol.
(§4) Ethanol inhibition kinetics are thought to follow those of non-competitive inhibition and can be modeled using a variant of the Monod equation. From the specific growth rate values calculated, it is possible to determine values of Ki by inserting them into the rearranged equation [µm/µi - 1 = I. 1/Ki]. […] The initial values of µ calculated are µapparent values determined from the growth of a culture containing both living and dead cells.

FY23Δcox5a = system: FY23Δcox5a
Description: as §1, §2, §3, §4

FY23WT = conditions: strain FY23WT (grande parent); batch culture 30°C; exogenous ethanol 0-10% (w/v); µ corrected for viability
Description: as §1, §2, §3, §4

FY23ρ^0 = system: FY23ρ^0
Description: as §1, §2, §3, §4

C[C@@H]1C[C@@H]([C@H](O)CC2CC(=O)NC(=O)C2)C(=O)[C@@H](C)C1 [cycloheximide]
concentration to which S. cerevisiae is sensitive (S. cerevisiae): ~0.2 µg/mL

CCO [ethanol]
Ki as percentage of the wild-type value (FY23Δpet191; FY23Δpet191, Ki relative to FY23WT): approximately 95% | Ki (true growth rate) (FY23Δpet191; strain FY23Δpet191 (nuclear petite), batch culture 30°C, µ corrected for viability): 2.14 % (w/v) | ethanol tolerance relative to the wild-type strain (FY23Δcox5a; FY23Δcox5a, Ki as percentage of FY23WT): 86% | Ki (true growth rate) (FY23Δcox5a; strain FY23Δcox5a (nuclear petite), batch culture 30°C, µ corrected for viability): 1.94 % (w/v) | Ki (true growth rate) (FY23WT): 2.30 % (w/v) | ethanol tolerance relative to FY23 WT (FY23ρ^0; mitochondrial petite, Ki as percentage of FY23WT): 76% | Ki (true growth rate) (FY23ρ^0; strain FY23ρ^0 (mitochondrial petite), batch culture 30°C, µ corrected for viability): 1.71 % (w/v)
